Data taken from publication PMC10439185 (Cell Reports Medicine, 2023).

How the values were obtained:
PPT1 = target: T1, PPT1 (Mus musculus, UniProt O88531); assay: microscale thermophoresis; assay type: binding
T1 sequence (O88531 28-306): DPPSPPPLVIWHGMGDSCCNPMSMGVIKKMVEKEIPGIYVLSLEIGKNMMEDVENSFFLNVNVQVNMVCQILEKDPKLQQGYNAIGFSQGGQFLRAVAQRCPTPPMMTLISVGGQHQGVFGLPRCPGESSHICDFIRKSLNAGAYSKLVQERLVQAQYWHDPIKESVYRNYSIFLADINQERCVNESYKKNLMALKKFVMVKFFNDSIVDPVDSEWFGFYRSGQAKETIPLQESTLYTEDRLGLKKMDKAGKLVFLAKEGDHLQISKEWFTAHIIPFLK

PPT1 (endogenous, BMDMs) = target: T2, PPT1 (endogenous, BMDMs) (Mus musculus, UniProt O88531); assay: cellular thermal shift assay, immunoblot; assay type: cell-based; settings: intact BMDMs, 37-62 °C, 3 min
T2 sequence (O88531 28-306): T1 sequence (O88531 28-306)

- Kd (PPT1): 863 µM
SMILES: O=C(O)C(=O)Cc1ccccc1 [phenylpyruvate]
- thermal shift (PPT1 (endogenous, BMDMs)): phenylpyruvate treatment significantly changed PPT1 protein stability after heating
